Laboratory results published in patent publication US8524696B2, “Water-soluble compositions of bioactive lipophilic compounds” (priority 1999, dated 2013).

How the values were obtained:
[1] = Storage stability of water-soluble compositions and their aqueous solutions; format: physicochemical; conditions: in water or saline; refrigerated or frozen as stated
[2] = tested on: Human teratocarcinoma NT2; assay: Protection against hypoxia, cell viability by trypan blue exclusion; format: cell-based; conditions: 10 mg/ml as PTS formulation, 3 days; 17.5 hours anaerobic, glucose-free
Procedure: The flasks were sealed in an anaerobic chamber containing Gas Pak Plus gas generator envelopes and were incubated in the anaerobic conditions at 37° C. for 17.5 hours in glucose-free medium. Following the hypoxic treatment the cells were placed again in the complete medium (with and without CoQ10 or vitamin E) and were analysed either immediately (time 0) or were cultured for the additional 24 hr under the normoxic conditions. Cell viability was measured by trypan blue exclusion assay. […]

[3] = tested on: spontaneously hypertensive rats (SHR); assay: Ischemia/reperfusion, middle cerebral artery occlusion model (MCAO), TTC staining; format: in vivo, rat; conditions: CoQ10 treatment postischemically
[4] = tested on: red blood cells (RBC) isolated from Balb/c mice; assay: In vitro haemolysis of red blood cells (RBC); format: cell-based, mouse; conditions: 0.3% Triton X-100, 1 h at 37° C., taken as 100% haemolysis (Table 17 reference column)
[5] = Systemic release of vitamin E following administration of PTS (plasma alpha-tocopherol by HPLC); format: in vivo, Sprague Dawley male rats; conditions: for Concentration of α-tocopherol in rat blood plasma: PTS 50 mg/kg
Procedure: PTS, dissolved in water (50 mg/ml), was administered to Sprague Dawley male rats (300-350 g) either orally or intravenously at a dose of 50 mg/kg body weight. Heparinized blood samples were collected at 0, 3, 8 and 24 hr following PTS administration. Blood plasma samples were obtained and analyzed for the content of alpha-tocopherol using an HPLC method using a Supercosil DB column and a mobile phase of ethanol:methanol (80:20 v/v) at a flow rate of 1 ml/min. Beckman System Karat software was used for data quantification.

CC1=C(/C=C/C(C)=C/C=C/C(C)=C/C=C/C=C(C)/C=C/C=C(C)/C=C/C2=C(C)C(=O)[C@@H](O)CC2(C)C)C(C)(C)C[C@H](O)C1=O [Astaxanthin]
stability of aqueous solutions [1]: remained stable for several months

COC1=C(OC)C(=O)C(C/C=C(\C)CC/C=C(\C)CC/C=C(\C)CC/C=C(\C)CC/C=C(\C)CC/C=C(\C)CC/C=C(\C)CC/C=C(\C)CC/C=C(\C)CCC=C(C)C)=C(C)C1=O [CoQ10, Coenzyme Q10]
percentage of death during the 24 hr recovery period from hypoxia [2]: reduced by half
protective effects against ischemia-induced tissue damage [3]: clearly evident

Cc1c(C)c2c(c(C)c1O)CC[C@@](C)(CCC[C@H](C)CCC[C@H](C)CCCC(C)C)O2 [Vitamin E, α-(+)-tocopherol]
percentage of death during the 24 hr recovery period from hypoxia [2]: reduced by half

Triton X-100
Percentage of lysed Cells [4]: 100.0%

polyoxyethanyl-α-tocopheryl sebacate [PTS]
Concentration of α-tocopherol in rat blood plasma ([5]; Intravenous administration, 3 hours): 18.48 ± 2.40 (n = 3) μg/ml
Concentration of α-tocopherol in rat blood plasma ([5]; Intravenous administration, 8 hours): 11.19 ± 3.11 (n = 3) μg/ml
Concentration of α-tocopherol in rat blood plasma ([5]; Intravenous administration, 24 hours): 10.59 ± 1.48 (n = 3) μg/ml
Concentration of α-tocopherol in rat blood plasma ([5]; Oral administration, 3 hours): 8.65 ± 1.40 (n = 3) μg/ml
Concentration of α-tocopherol in rat blood plasma ([5]; Oral administration, 8 hours): 9.33 ± 2.10 (n = 3) μg/ml
Concentration of α-tocopherol in rat blood plasma ([5]; Oral administration, 24 hours): 8.31 ± 0.60 (n = 3) μg/ml
plasma content of α-tocopherol after PTS (systemic conversion to vitamin E) ([5]; oral or intravenous PTS, rat): Elevated
